# In PubChem BioAssay (NCI):
#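 96-well plates; 48 h exposure; 5 concentrations. Endpoints by linear interpolation between flanking doses. Not reached: highest tested concentration assigned. GI50 = concentration required for 50% inhibition of growth. TGI denotes the concentration required for complete inhibition of growth.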
# Tests used:
# Experiment in all cases: DTP human tumour cell line panel, 48 h
# RXF 393 renal = tested on: RXF 393 renal
# SNB-75 CNS = tested on: SNB-75 CNS
# MALME-3M melanoma = tested on: MALME-3M melanoma
# UO-31 renal = tested on: UO-31 renal
# M14 melanoma = tested on: M14 melanoma
# OVCAR-5 ovarian = tested on: OVCAR-5 ovarian
# SF-295 CNS = tested on: SF-295 CNS
# TK-10 renal = tested on: TK-10 renal
# DU-145 prostate = tested on: DU-145 prostate
# HS 578T breast = tested on: HS 578T breast
# KM12 colon = tested on: KM12 colon
# OVCAR-8 ovarian = tested on: OVCAR-8 ovarian
# HT29 colon = tested on: HT29 colon
# MOLT-4 leukemia = tested on: MOLT-4 leukemia
# HOP-62 NSCLC = tested on: HOP-62 NSCLC
# CAKI-1 renal = tested on: CAKI-1 renal
# SF-268 CNS = tested on: SF-268 CNS
# HOP-92 NSCLC = tested on: HOP-92 NSCLC
# NCI-H460 lung = tested on: NCI-H460 lung
# NCI/ADR-RES ovarian = tested on: NCI/ADR-RES ovarian
# NCI-H23 lung = tested on: NCI-H23 lung
# A549 NSCLC = tested on: A549 NSCLC
# PC-3 prostate = tested on: PC-3 prostate
# LOX IMVI melanoma = tested on: LOX IMVI melanoma
# OVCAR-3 ovarian = tested on: OVCAR-3 ovarian
# NCI-H226 lung = tested on: NCI-H226 lung
# 786-0 renal = tested on: 786-0 renal
# SNB-19 CNS = tested on: SNB-19 CNS
# SK-MEL-5 melanoma = tested on: SK-MEL-5 melanoma
# UACC-62 melanoma = tested on: UACC-62 melanoma
# NCI-H522 lung = tested on: NCI-H522 lung
# SF-539 CNS = tested on: SF-539 CNS
# K-562 leukemia = tested on: K-562 leukemia
# SK-MEL-28 melanoma = tested on: SK-MEL-28 melanoma
# SW-620 colon = tested on: SW-620 colon
# SK-OV-3 ovarian = tested on: SK-OV-3 ovarian
# OVCAR-4 ovarian = tested on: OVCAR-4 ovarian
# T-47D breast = tested on: T-47D breast
# HCT-15 colon = tested on: HCT-15 colon
# A498 renal = tested on: A498 renal
# HCT-116 colon = tested on: HCT-116 colon
# MCF7 breast = tested on: MCF7 breast
# ACHN renal = tested on: ACHN renal
# MDA-MB-435 = tested on: MDA-MB-435
# MDA-MB-231 breast = tested on: MDA-MB-231 breast
# SN12C renal = tested on: SN12C renal
# BT-549 breast = tested on: BT-549 breast
# CCRF-CEM leukemia = tested on: CCRF-CEM leukemia
# SK-MEL-2 melanoma = tested on: SK-MEL-2 melanoma
# HCC-2998 colon = tested on: HCC-2998 colon
# SR leukemia = tested on: SR leukemia
# U251 CNS = tested on: U251 CNS
# IGROV1 ovarian = tested on: IGROV1 ovarian
# EKVX NSCLC = tested on: EKVX NSCLC
# HL-60(TB) leukemia = tested on: HL-60(TB) leukemia
# UACC-257 melanoma = tested on: UACC-257 melanoma
# COLO 205 colon = tested on: COLO 205 colon
# RPMI-8226 leukemia = tested on: RPMI-8226 leukemia
compound,measurement,setting,value
NC(=O)c1cccc(N2Cc3ccccc3OC3=C2C(=O)c2c(O)ccc(O)c2C3=O)c1,GI50,RXF 393 renal,189 nM
same,TGI,RXF 393 renal,433 nM
same,GI50,SNB-75 CNS,1490 nM
same,TGI,SNB-75 CNS,6670 nM
same,GI50,MALME-3M melanoma,194 nM
same,TGI,MALME-3M melanoma,614 nM
same,GI50,UO-31 renal,138 nM
same,TGI,UO-31 renal,344 nM
same,GI50,M14 melanoma,554 nM
same,TGI,M14 melanoma,1970 nM
same,GI50,OVCAR-5 ovarian,1280 nM
same,TGI,OVCAR-5 ovarian,2870 nM
same,GI50,SF-295 CNS,2210 nM
same,TGI,SF-295 CNS,5990 nM
same,GI50,TK-10 renal,221 nM
same,TGI,TK-10 renal,682 nM
same,GI50,DU-145 prostate,517 nM
same,TGI,DU-145 prostate,1640 nM
same,GI50,HS 578T breast,3280 nM
same,TGI,HS 578T breast,30800 nM
same,GI50,KM12 colon,1880 nM
same,TGI,KM12 colon,4880 nM
same,GI50,OVCAR-8 ovarian,304 nM
same,TGI,OVCAR-8 ovarian,1500 nM
same,GI50,HT29 colon,302 nM
same,TGI,HT29 colon,1150 nM
same,GI50,MOLT-4 leukemia,235 nM
same,TGI,MOLT-4 leukemia,1090 nM
same,GI50,HOP-62 NSCLC,2140 nM
same,TGI,HOP-62 NSCLC,5960 nM
same,GI50,CAKI-1 renal,301 nM
same,TGI,CAKI-1 renal,1130 nM
same,GI50,SF-268 CNS,1340 nM
same,TGI,SF-268 CNS,3910 nM
same,GI50,HOP-92 NSCLC,270 nM
same,TGI,HOP-92 NSCLC,752 nM
same,GI50,NCI-H460 lung,2340 nM
same,TGI,NCI-H460 lung,6120 nM
same,GI50,NCI/ADR-RES ovarian,2130 nM
same,TGI,NCI/ADR-RES ovarian,35600 nM
same,GI50,NCI-H23 lung,1590 nM
same,TGI,NCI-H23 lung,4500 nM
same,GI50,A549 NSCLC,2830 nM
same,TGI,A549 NSCLC,10100 nM
same,GI50,PC-3 prostate,1280 nM
same,TGI,PC-3 prostate,4560 nM
same,GI50,LOX IMVI melanoma,284 nM
same,TGI,LOX IMVI melanoma,897 nM
same,GI50,OVCAR-3 ovarian,233 nM
same,TGI,OVCAR-3 ovarian,646 nM
same,GI50,NCI-H226 lung,2040 nM
same,TGI,NCI-H226 lung,5950 nM
same,GI50,786-0 renal,276 nM
same,TGI,786-0 renal,986 nM
same,GI50,SNB-19 CNS,3000 nM
same,TGI,SNB-19 CNS,10800 nM
same,GI50,SK-MEL-5 melanoma,1760 nM
same,TGI,SK-MEL-5 melanoma,3840 nM
same,GI50,UACC-62 melanoma,319 nM
same,TGI,UACC-62 melanoma,1140 nM
same,GI50,NCI-H522 lung,68.2 nM
same,TGI,NCI-H522 lung,256 nM
same,GI50,SF-539 CNS,1250 nM
same,TGI,SF-539 CNS,2630 nM
same,GI50,K-562 leukemia,164 nM
same,TGI,K-562 leukemia,1330 nM
same,GI50,SK-MEL-28 melanoma,433 nM
same,TGI,SK-MEL-28 melanoma,1500 nM
same,GI50,SW-620 colon,275 nM
same,TGI,SW-620 colon,1030 nM
same,GI50,SK-OV-3 ovarian,3510 nM
same,TGI,SK-OV-3 ovarian,13000 nM
same,GI50,OVCAR-4 ovarian,312 nM
same,TGI,OVCAR-4 ovarian,1130 nM
same,GI50,T-47D breast,213 nM
same,TGI,T-47D breast,746 nM
same,GI50,HCT-15 colon,224 nM
same,TGI,HCT-15 colon,724 nM
same,GI50,A498 renal,2640 nM
same,TGI,A498 renal,7210 nM
same,GI50,HCT-116 colon,267 nM
same,TGI,HCT-116 colon,963 nM
same,GI50,MCF7 breast,327 nM
same,TGI,MCF7 breast,1730 nM
same,GI50,ACHN renal,165 nM
same,TGI,ACHN renal,485 nM
same,GI50,MDA-MB-435,1080 nM
same,TGI,MDA-MB-435,2860 nM
same,GI50,MDA-MB-231 breast,342 nM
same,TGI,MDA-MB-231 breast,1040 nM
same,GI50,SN12C renal,1440 nM
same,TGI,SN12C renal,3400 nM
same,GI50,BT-549 breast,944 nM
same,TGI,BT-549 breast,2410 nM
same,GI50,CCRF-CEM leukemia,120 nM
same,TGI,CCRF-CEM leukemia,595 nM
same,GI50,SK-MEL-2 melanoma,1960 nM
same,TGI,SK-MEL-2 melanoma,4790 nM
same,GI50,HCC-2998 colon,1960 nM
same,TGI,HCC-2998 colon,3640 nM
same,GI50,SR leukemia,88 nM
same,TGI,SR leukemia,912 nM
same,GI50,U251 CNS,1510 nM
same,TGI,U251 CNS,4590 nM
same,GI50,IGROV1 ovarian,1190 nM
same,TGI,IGROV1 ovarian,3010 nM
same,GI50,EKVX NSCLC,1260 nM
same,TGI,EKVX NSCLC,4090 nM
same,GI50,HL-60(TB) leukemia,188 nM
same,TGI,HL-60(TB) leukemia,496 nM
same,GI50,UACC-257 melanoma,531 nM
same,TGI,UACC-257 melanoma,1730 nM
same,GI50,COLO 205 colon,112 nM
same,TGI,COLO 205 colon,298 nM
same,GI50,RPMI-8226 leukemia,319 nM
same,TGI,RPMI-8226 leukemia,1360 nM
